Reference: US11464840B2, “Universal non-classical MHC I vaccines: HLA-E-restricted antigenic peptides as universal vaccines to treat allergy, inflammation, autoimmune and infectious diseases, and cancers” (priority 2019, dated 2022)
Where “and” joins values, the source holds several entries; their conditions need not be identical. Equal entries are not always repeated. Ends that are not written are not given here.

Columns and labels:
Derlin-1 mRNA [1] = assay: Derlin-1 mRNA knockdown by siRNA in T2 cells (qPCR, ΔΔCt); type: cell-based, human; settings: for Derlin-1 mRNA knockdown (KD): 6 Hours
Protocol: (§1) Table 1: Summary of Derlin-1 Knockdowns with Various siRNAs. Cells transfected in 12 well plate at 60%-80% confluency. one ul Viromer blue was used per 1 ml final volume. Cells were lysed via centrifugation and resuspended in TRI reagent at time points of either 6 h, 24 h, and 48 h. Lysates were split for both protein verification and qPCR. Knockdowns are estimated using the ΔΔCt method. […] Anti-Derlin-1 siRNA was designed using MITs website (sirna.wi.mit.edu) and siRNA design software (dharmacon.horizondiscovery.com/rnai/sirna). SiRNA were chosen based on the criteria that they would bind no more than 15 nucleotides on off-target mRNA and that they would be capable of knockdown for all four of the Derlin-1 mRNA isoforms. Additionally, siRNAs with 40-60% GC content, no more than 3 identical nucleotides in a row, and 3′ UU overhangs were used. The first siRNA (SEQ ID NO: 65, 5′-[…]-3′) was purchased from TriLink Biotechnologies and the second (SEQ ID NO: 66, 5′-[…]-3′) was purchased from Horizon Discovery. A third, modified siRNA with sequence 5′-SEQ ID NO: 67, O′me/G/O′me/[…]-3′ and DNA bases on the 1st and 8th nucleotide of the antisense strand was also designed and purchased from Horizontal Discovery. Scramble siRNAs were purchased from Horizontal Discovery (D-001810-10-05, ON-TARGET plus Non-targeting Pool). […]

Derlin-1 mRNA [2] = assay: Derlin-1 mRNA knockdown by siRNA in monocyte-derived dendritic cells (qPCR, ΔΔCt); type: cell-based, human; settings: for Derlin-1 mRNA knockdown (KD): MODC
Protocol: Table 1: Summary of Derlin-1 Knockdowns with Various siRNAs. Cells transfected in 12 well plate at 60%-80% confluency. one ul Viromer blue was used per 1 ml final volume. Cells were lysed via centrifugation and resuspended in TRI reagent at time points of either 6 h, 24 h, and 48 h. Lysates were split for both protein verification and qPCR. Knockdowns are estimated using the ΔΔCt method. […] Anti-Derlin-1 siRNA was designed using MITs website (sirna.wi.mit.edu) and siRNA design software (dharmacon.horizondiscovery.com/rnai/sirna). SiRNA were chosen based on the criteria that they would bind no more than 15 nucleotides on off-target mRNA and that they would be capable of knockdown for all four of the Derlin-1 mRNA isoforms. Additionally, siRNAs with 40-60% GC content, no more than 3 identical nucleotides in a row, and 3′ UU overhangs were used. The first siRNA (SEQ ID NO: 65, 5′-[…]-3′) was purchased from TriLink Biotechnologies and the second (SEQ ID NO: 66, 5′-[…]-3′) was purchased from Horizon Discovery. A third, modified siRNA with sequence 5′-SEQ ID NO: 67, O′me/G/O′me/[…]-3′ and DNA bases on the 1st and 8th nucleotide of the antisense strand was also designed and purchased from Horizontal Discovery. Scramble siRNAs were purchased from Horizontal Discovery (D-001810-10-05, ON-TARGET plus Non-targeting Pool).
(§2) Derlin-1 forms an integral part of the […] machinery required for transporting classical MHCI, e.g., HLA-A, -B, -C for proteasome degradation. […] In contrast, the protein band of Derlin-1 is entirely missing in Derlin-1 siRNA-treated MoDCs. Transfection of the primary cells were performed using PEI reagents (Viromer Blue vs. Viromer Red). The embodiment of the invention is three-fold. One aspect of the embodiment resides in treating APC with Derlin-1 RNA interference to prevent the generation of endogenous leader peptide as well as to cause dissociation of the HLA-E bound endogenous leader peptides so that Derlin-1-treated APC can be fully loaded with the HLA-E vaccines in the presence of the second costimulatory signal for immune induction.

Derlin-1 = Derlin-1 knockdown protein verification by Western blot in MoDCs; type: cell-based, human
Source text: FIG. 9. Derlin-1 siRNA knocked down Derlin-1 translation in dendritic cells and B and T cell tumors by western blots. (A) Comparison of two different PEI reagent. Viromer blue vs Viromer red with respect to Cy3-labeled siRNA (B) and toxicity (C). Derlin-1 Knockdown Protein Verification by Western Blot (A). Confirms the knockdown of protein levels in MoDCs by Derlin-1 siRNA #2. For Lanes 1, 2, 5, and 6, the respective knockdowns were 49%, 57%, 67%, and 72%. Scramble included at concentration of 25 nM in wells (3) and (7). Wells (4) and (8) contain RPMI medium only. Mouse Anti-Derlin-1 mAb added at concentration of 1:1000 and Goat Anti-mouse IgG1 added at 1:10,000. (B) Transfection Ability of Viromer red/blue vs Lipofectamine RNAiMax. TAP-deficient T2-cells transfected with cy3-conjugated siRNA at 10 nM using manufacturer's recommended protocol for each reagent. Cells were stained, fixed, and detected 24 hours after transfection. PE laser was used to detect cells on BD LSR II. A shift to the right indicates a more efficient transfection reagent. (C) Cytotoxicity of Viromer RED/BLUE vs Lipofectamine RNAiMax. Extracellular staining of T2 cells with Annexin V was used to determine the number of cells undergoing active apoptosis after transfection with each reagent. BV421 laser was used to detect cells on BD LSR II. Cells were stained, fixed, and detected 24 hours after transfection.
as §2

Derlin-1 mRNA [3] = assay: Derlin-1 mRNA knockdown by siRNA in B721.221 cells (qPCR, ΔΔCt); type: cell-based, human; settings: 6 hours
Protocol: as §1

HLA-G [4] = assay: Surface HLA-G expression of CD8 T cells co-cultured with peptide-pulsed MoDCs (FACS); type: cell-based, human; settings: immature and mature MoDC pulsed with A2 peptides of IgE epitope, SR11237 100 nmol/L, co-culture 5 days
Protocol: FIG. 7. Modulation of HLA-G by RXR agonist. Surface HLA-G expression of CD8 T cells was observed induced by RXRα agonist, SR11237 (100 nmol/L)-treated immature (A) and mature (B) MoDCs in presence of A2 mix peptides (Biomatik). MoDCs isolated from A2 type of PBMCs, were cultured in 10% FBS RPMI with 200 U/ml IL-4 and 100 U/ml GM-CSF for 5 days as immature MoDCs and then proceeded for maturation with addition of cytokines cocktail containing TNFα (10 ng/ml), PGE2 (1 μg/ml), IL-6 (150 ng/ml) and IL-1β (5 ng/ml) (Biolegend) for another two days. Both mature and immature MoDC were incubated with SR11237 for 2 days and pulsed with A2 peptides of IgE epitope for 4 hr. Then MoDCs were co-cultured in anti-CD3 (10 μg/ml) coated plate for 5 days with T cells isolated from PBMCs by adhering PBMC to 100×20 mm plate and collecting suspended cells. Cells were then collected and stained with Alex Fluor 488-conjugated human CD8 and PE-Cy 7-conjugated human HLA G followed by fixation with 2% paraformaldehyde. Phenotype and HLA G expression of T cells were performed by using a FACS, LRSII flow cytometry, data were processed as describe above.

HLA-E = assay: Surface HLA-E expression in immature MoDC cells (FACS); type: cell-based, human; settings: 100 nM SR11237, 100 nM Bexarotene or Interferon-β 1,000 U, 4 days
Protocol: FIG. 5. […] MoDCs were then collected and stained with fluorescence-conjugated antibody; APC-conjugated anti-CD83 (Biolegend) and PE-conjugated HLA-E (Biolegend) followed by fixation with 2% paraformaldehyde. Phenotype and HLA-E expression of MoDCs were performed by using a FACS, LRSII flow cytometry and the data were processed by using the Flowjo software.

HLA-G [5] = assay: Surface HLA-G expression in immature MoDC cells (FACS); type: cell-based, human; settings: 100 nM SR11237, 100 nM Bexarotene or Interferon-β 1,000 U, 4 days
the three HLA-E preps [6] = assay: ELISA: renatured complex captured on anti-HLA-E coated plate, bound biotinylated peptide detected with HRP-avidin; peptide at 0.1 µg/ml
the three HLA-E preps [7] = assay: ELISA: renatured complex captured on anti-HLA-E coated plate, bound biotinylated peptide detected with HRP-avidin; peptide at 1.0 µg/ml

Molecule: 5′-GGACUUGGGAGGAAGAAAUUU-3′ (listed as RNA, chemistry not given here; listed as Homo sapiens) [Derlin siRNA #2]
- Derlin-1 mRNA knockdown (KD) (Derlin-1 mRNA [1]; T2, 2.5 nM siRNA): 62%
- Derlin-1 mRNA knockdown (KD) (Derlin-1 mRNA [1]; T2, 5 nM siRNA): 43%
- Derlin-1 mRNA knockdown (KD) (Derlin-1 mRNA [1]; T2, 10 nM siRNA): 34%
- effectiveness in reducing Derlin-1 mRNA levels, compared among siRNAs (Derlin-1 mRNA [1]; T2 cells): most effective
- Derlin-1 mRNA knockdown (KD) (Derlin-1 mRNA [2]; 25 nM siRNA, Day 1): 49%
- Derlin-1 mRNA knockdown (KD) (Derlin-1 mRNA [2]; 25 nM siRNA, Day 2): 67%
- Derlin-1 mRNA knockdown (KD) (Derlin-1 mRNA [2]; 50 nM siRNA, Day 1): 57%
- Derlin-1 mRNA knockdown (KD) (Derlin-1 mRNA [2]; 50 nM siRNA, Day 2): 72%
- effectiveness in reducing Derlin-1 mRNA levels, compared among siRNAs (Derlin-1 mRNA [2]; monocyte-derived dendritic cells): most effective
- Derlin-1 knockdown, FIG. 9 Western blot (Derlin-1; Lane 1): 49%
- Derlin-1 knockdown, FIG. 9 Western blot (Derlin-1; Lane 2): 57%
- Derlin-1 knockdown, FIG. 9 Western blot (Derlin-1; Lane 5): 67%
- Derlin-1 knockdown, FIG. 9 Western blot (Derlin-1; Lane 6): 72%
- Derlin-1 mRNA knockdown (KD) (Derlin-1 mRNA [3]; B721.221, 5 nM siRNA): 52%
- Derlin-1 mRNA knockdown (KD) (Derlin-1 mRNA [3]; B721.221, 10 nM siRNA): 50%

Molecule: CC1(C)CCC(C)(C)c2cc(C3(c4ccc(C(=O)O)cc4)OCCO3)ccc21 [SR11237, reference compound]
- HLA G expression in CD8+ T cells (HLA-G [4]): no further increase
- HLA-E expression of immature MoDC cells (HLA-E): dramatically induced
- HLA-G expression of immature MoDC cells (HLA-G [5]): little or no effect

B1: biotinylated HLA-A2 leader peptide (SEQ ID NO: 50, …) (peptide)
peptide: NPRKVTAYL
modifications: also: biotinylated, position not given here
- OD (the three HLA-E preps [6]): 0.02 OD
- OD (the three HLA-E preps [7]): 0.2 OD and > 0.3 OD
- fold increment of OD (against the 0.02 OD at 0.1 µg/ml peptide) (the three HLA-E preps [7]): 10 fold and 15 fold
